Results as given in article PMC11040352, “CD38‐Specific Gallium‐68 Labeled Peptide Radiotracer Enables Pharmacodynamic Monitoring in Multiple Myeloma with PET” (Advanced Science, 2024).
Where “and” joins values, the source holds several entries; their conditions need not be identical. Equal values may be shown once. Read-outs that look alike come from different tables or passages of the source.

Tests used:
MOLP8 tumor xenografts = test: Ex vivo biodistribution in mice with MOLP8 tumor xenografts; set-up: species or system NSG mice; details: MOLP8 xenograft mice
Experimental: (§1) Animal studies were performed under Johns Hopkins University Animal Care and Use Committee (ACUC‐approved protocol (Principal investigator: Sridhar Nimmagadda, Ph.D. and Protocol number M021M175). Male and female NSG mice (5‐6 weeks old) were used to establish xenografts by administering 3 million cells (50% Corning Matrigel) subcutaneously to form various tumor models within 3–4 weeks. Imaging or biodistribution studies (n = 3–5) were conducted on mice with tumor volumes of 100–200 mm^3. Disseminated tumor models were developed by injecting 4–5 million cells in saline intravenously for MOLP8 and MM1S‐Luc models (n = 4–5). Luciferase expressing MM1S cell line (MM1S‐Luc) was used to monitor cancer cell dissemination in the body. Tumor establishment was confirmed by injecting D‐Luciferin intraperitoneally (150 mg kg^−1) and imaged mice after 10 min in IVIS bioluminescence imaging system. Bone marrow tumors were ready for imaging after 25–30 d of implantation.
(§2) Mice with 100–200 mm^3 tumor volume were used for ex vivo biodistribution studies. For radiotracer pharmacokinetics studies, mice with MOLP8 tumor xenografts received ≈80 µCi (2.96 MBq) [^68Ga]Ga‐AJ206 and were sacrificed at pre‐determined time points (5, 30, 60 and 120 min). Similarly, for dosimetry study, mice with MM1S tumor xenografts received ≈80 µCi (2.96 MBq) of [^68Ga]Ga‐AJ206 and were sacrificed at pre‐determined time points (5, 30, 60, 90 and 120 min). All other mice were injected with ≈50µCi (1.85 MBq) [^68Ga]Ga‐AJ206 and were sacrificed at 60 min. The selected tissues were collected, weighed, counted, and their %ID g^−1 values calculated for biodistribution analysis. The tissues included blood, muscle, tumor, thymus, heart, lung, liver, pancreas, stomach, small intestine, large intestine, spleen, adrenals, kidney, bladder, femur, and brain.

[1] = as above; set-up: species or system NSG mice; details: both sexes, NSG, mouse, 80 uCi, total radioactivity, MOLP8 xenograft mice; for tissue to tissue ratio at 5 min: 5 min p.i.; for tissue to tissue ratio at 0.5 h: 30 min p.i.; for tissue to tissue ratio at 1 h: 60 min p.i.; for tissue to tissue ratio at 2 h: 120 min p.i.
Experimental: as §1, §2

[2] = 60 min p.i., listed as [68Ga]Ga-AJ206
[3] = tumor/blood, read-out: Tumor/blood ratio
[4] = tumor/muscle, read-out: Tumor/muscle ratio

## CC[C@H](C)[C@@H]1NC(=O)[C@@H]2CCCN2C(=O)[C@H](Cc2ccccc2)NC(=O)[C@H](CC(=O)O)NC(=O)[C@H](C)NC(=O)[C@@H]2CSCc3cc(cc(c3)CSC[C@H](NC(=O)[C@H](C)NC(=O)CCOCCOCCOCCNC(=O)CN3CCN(CC(=O)O)CCN(CC(=O)O)CC3)C(=O)N[C@@H](C(C)C)C(=O)N3CCC[C@H]3C(=O)N2)CSC[C@@H](C(N)=O)NC(=O)[C@H](Cc2ccc(O)cc2)NC(=O)[C@H](Cc2c[nH]c3ccccc23)NC1=O [[^68Ga]Ga‐AJ206, metal not drawn]
MOLP8 tumor xenografts; 5 min p.i.
  uptake in blood: 8.25 ± 0.50 %ID g^−1
  uptake in femur: 1.42 ± 0.09 %ID g^−1
  uptake in heart: 3.13 ± 0.27 %ID g^−1
  uptake in kidney: 11.17 ± 0.65 %ID g^−1
  uptake in liver: 21.24 ± 1.31 %ID g^−1
  uptake in lungs: 6.16 ± 0.16 %ID g^−1
  uptake in muscle: 0.92 ± 0.11 %ID g^−1
  uptake in small intestine: 1.95 ± 0.08 %ID g^−1
  uptake in spleen: 2.28 ± 0.50 %ID g^−1
  uptake in stomach: 1.08 ± 0.07 %ID g^−1
  uptake in tumor: 2.58 ± 0.18 %ID g^−1
MOLP8 tumor xenografts; 30 min p.i.
  uptake in blood: 2.07 ± 0.30 %ID g^−1
  uptake in femur: 0.65 ± 0.08 %ID g^−1
  uptake in heart: 0.83 ± 0.18 %ID g^−1
  uptake in kidney: 17.09 ± 1.77 %ID g^−1
  uptake in liver: 6.39 ± 3.71 %ID g^−1
  uptake in lungs: 1.86 ± 0.29 %ID g^−1
  uptake in muscle: 0.37 ± 0.05 %ID g^−1
  uptake in small intestine: 0.59 ± 0.14 %ID g^−1
  uptake in spleen: 0.75 ± 0.14 %ID g^−1
  uptake in stomach: 0.51 ± 0.06 %ID g^−1
  uptake in tumor: 2.91 ± 0.84 %ID g^−1
MOLP8 tumor xenografts; 60 min p.i.
  Tumor/blood ratio: 7.20 ± 0.89
  Tumor/muscle ratio: 27.12 ± 2.73
  uptake in blood: 0.56 ± 0.09 %ID g^−1
  uptake in femur: 0.28 ± 0.07 %ID g^−1
  uptake in heart: 0.29 ± 0.03 %ID g^−1
  uptake in kidney: 16 %ID g^−1 and 16.65 ± 2.52 %ID g^−1
  uptake in liver: 1.22 ± 0.09 %ID g^−1
  uptake in lungs: 0.71 ± 0.10 %ID g^−1
  uptake in muscle: 0.14 ± 0.02 %ID g^−1
  uptake in small intestine: 0.65 ± 0.09 %ID g^−1
  uptake in spleen: 0.39 ± 0.03 %ID g^−1
  uptake in stomach: 0.25 ± 0.06 %ID g^−1
  uptake in tumor: 3.76 ± 0.25 %ID g^−1
MOLP8 tumor xenografts; [2]
  uptake in blood: 0.56±0.09 %ID g^−1
  uptake in femur: 0.28±0.07 %ID g^−1
  uptake in heart: 0.29±0.03 %ID g^−1
  uptake in kidney: 16.65±2.52 %ID g^−1
  uptake in liver: 1.22±0.09 %ID g^−1
  uptake in lungs: 0.71±0.10 %ID g^−1
  uptake in muscle: 0.14±0.02 %ID g^−1
  uptake in small intestine: 0.65±0.09 %ID g^−1
  uptake in spleen: 0.39±0.03 %ID g^−1
  uptake in stomach: 0.25±0.06 %ID g^−1
  uptake in tumor: 3.76±0.25 %ID g^−1
MOLP8 tumor xenografts; 120 min p.i.
  uptake in blood: 0.05 ± 0.01 %ID g^−1
  uptake in femur: 0.07 ± 0.01 %ID g^−1
  uptake in heart: 0.05 ± 0.01 %ID g^−1
  uptake in kidney: 13.75 ± 0.23 %ID g^−1
  uptake in liver: 0.42 ± 0.01 %ID g^−1
  uptake in lungs: 0.16 ± 0.03 %ID g^−1
  uptake in muscle: 0.07 ± 0.04 %ID g^−1
  uptake in small intestine: 0.18 ± 0.04 %ID g^−1
  uptake in spleen: 0.17 ± 0.02 %ID g^−1
  uptake in stomach: 0.03 ± 0.01 %ID g^−1
  uptake in tumor: 1.46 ± 0.02 %ID g^−1
MOLP8 tumor xenografts; by 60 min
  blood pool activity cleared: ~95%
[1]; [3]
  tissue to tissue ratio at 5 min: 0.32 ± 0.04
  tissue to tissue ratio at 0.5 h: 1.43 ± 0.46
  tissue to tissue ratio at 1 h: > 7
  tissue to tissue ratio at 2 h: 19.7 ± 6.57
[1]; [4]
  tissue to tissue ratio at 5 min: 2.94 ± 0.47
  tissue to tissue ratio at 0.5 h: 7.28 ± 1.89
  tissue to tissue ratio at 1 h: > 25
  tissue to tissue ratio at 2 h: 27.4 ± 18.6
